# Results as given in EP0497314A1, “Use of azapirones in attention deficit hyperactivity disorder” (Bristol-Myers Squibb Company, priority 1991, dated 1992).
# Structures can show the parent of a compound that is named as a salt. Marks after values point to notes of the source that are not given here.
# Key:
# [1] = tested on: rabbit cortex; experiment: Quantitative EEG, rabbit cortex, intravenous administration; type: in vivo, rabbits; details: for group percent change in electrical energy from pre-drug control, Δ band / mean change ± S.E. in electrical energy from pre-drug control, Δ band: Δ = 0.5-3.5 Hz; for group percent change in electrical energy from pre-drug control, α band / mean change ± S.E. in electrical energy from pre-drug control, α band: α= 7-13 Hz; for group percent change in electrical energy from pre-drug control, β band / mean change ± S.E. in electrical energy from pre-drug control, β band: β= 13-25 Hz; for group percent change in electrical energy from pre-drug control, γ band / mean change ± S.E. in electrical energy from pre-drug control, γ band: γ= 25-40 Hz; for group percent change in electrical energy from pre-drug control, θ band / mean change ± S.E. in electrical energy from pre-drug control, θ band: θ= 3.5-7.0 Hz
# Experimental: At least 2 weeks were allowed for recovery before beginning experimentation.
# Groups of four animals each were individually restrained and connected to an EEG amplifier and frequency analyzer. The EEG of each animal was recorded on a separate channel. The instrumentation filtered each channel of EEG analog data into five distinct frequency bands: Δ=0.5-3.5 Hz, ϑ=3.5-7.0 Hz, α=7-13 Hz, β=13-25 Hz and γ=25-40 Hz. The EEG analyzer then integrated the filtered waveforms and sent pulses to an associated computer at a rate proportional to the electrical energy of each band. Thus, one computer print-out provided a cortical EEG profile for the entire group of four rabbits.
# Data from a one-hour recording period were collected in four 15-minute periods, which provided additional information concerning both onset and time of peak effect of drug activity. However, in this report only the mean activity of the four data collection periods was considered since onset of drug activity was immediate and duration of action was at least one hour for all drugs studied. Drug-induced EEG changes were determined by comparing the post-treatment print-out to the pretreatment control in the same animal and statistical analysis was performed on change from control, in counts, using multiple Student-t paired-comparison tests with p≦0.05 (Table 1). However, for clarity data are also presented as percent change from control (Figures 1 and 2).
# All drugs were administered intravenously in saline solution as their respective salts and all dosage calculations were based on the free base. Recording was started immediately after injection and animals were not used more often than once per week. Initial doses were reduced geometrically until a no-effect dose was determined for each drug. However, only the "no-effect" data and the data generated from the next higher dose are presented in this report since the shape of the EEG profile is not dose-related, as opposed to the magnitude of the response which is dose-related.
# [2] = tested on: fronto-occipital cortex of the cat; experiment: Quantitative EEG, fronto-occipital cat cortex, subcutaneous administration; type: in vivo, cats; details: for group percent change in electrical energy from pre-drug control, Δ band / mean change ± S.E. in electrical energy from pre-drug control, Δ band / group percent change in electrical energy from pre-drug control, α band / mean change ± S.E. in electrical energy from pre-drug control, α band / group percent change in electrical energy from pre-drug control, β band / mean change ± S.E. in electrical energy from pre-drug control, β band / group percent change in electrical energy from pre-drug control, γ band / mean change ± S.E. in electrical energy from pre-drug control, γ band / group percent change in electrical energy from pre-drug control, θ band / mean change ± S.E. in electrical energy from pre-drug control, θ band: fronto-occipital cat cortex; for group percent change in electrical energy from pre-drug control, Δ band / mean change ± S.E. in electrical energy from pre-drug control, Δ band: Δ = 0.5-3.5 Hz; for group percent change in electrical energy from pre-drug control, α band / mean change ± S.E. in electrical energy from pre-drug control, α band: α= 7-13 Hz; for group percent change in electrical energy from pre-drug control, β band / mean change ± S.E. in electrical energy from pre-drug control, β band: β= 13-25 Hz; for group percent change in electrical energy from pre-drug control, γ band / mean change ± S.E. in electrical energy from pre-drug control, γ band: γ= 25-40 Hz; for group percent change in electrical energy from pre-drug control, θ band / mean change ± S.E. in electrical energy from pre-drug control, θ band: θ= 3.5-7.0 Hz
# Excerpt: This unique combination of activity may render buspirone useful in the treatment of childhood hyperkinesis which has been reported to respond to both selected phenothiazine and stimulant drugs. • (b) Adult mongrel female cats weighing 2.5-4.0 kg were implanted with EEG recording electrodes. Recording sites were as follows: fronto-occipital cortex, basal amygdala and ventral hippocampus.
# Animals were individually held in canvas feline restraining bags for EEG recording. The EEG of each brain area was recorded on a separate channel. The instrumentation filtered each channel of EEG and analog data into five distinct frequency bands: Δ=0.5-3.5 Hz, ϑ=3.5-7.0 Hz, α=7-13 Hz, β=13-25 Hz and γ=25-40 Hz. The EEG analyzer then integrated the filtered waveforms and sent pulses to an associated computer at a rate proportional to the electrical energy of each band. Data collecting procedures were essentially the same as reported in Example 1. However, groups of six animals each were used and all drugs were administered subcutaneously in saline solution as their respective salts, but all dosages were calculated as the free base. Recording was started 30 minutes after injection to insure adequate drug absorption for peak activity.
# Drug-induced EEG changes were determined by comparing the post-treatment data to the pre-treatment control in the same animal. Statistical analysis was performed on change from control, in instrument counts, using multiple Student-t-paired-comparison test with P≦0.05 (Table 2). However, for clarity data are also presented as percent change from control (Figures 3, 4 and 5).
# The data in Table 2 are drug-induced changes resulting from the minimum and higher doses of each compound required to elicit the EEG profile characteristic of that particular drug.
# [3] = rabbit cortex, 0.125 mg/kg free base i.v.
# [4] = rabbit cortex, 0.25 mg/kg free base i.v.
structure (smiles),measurement,setting,value
"CN(C)CCCN1c2ccccc2Sc2ccc(Cl)cc21 [Chlorpromazine HCl, chlorpromazine]",minimal effective dose,"[1]; Oryctolagus cuniculus, iv, rabbit cortex EEG, dose of free base, read-out: the minimum dose required to produce the EEG profile characteristic of that particular drug",0.25 mg/kg
same,relative potency by comparing minimal doses required to elicit EEG profiles,"[1]; rabbit cortex EEG, i.v.",approximately twice as potent as buspirone
same,the no-effect dose,"[1]; rabbit cortex EEG, dose of free base","0.125† mg/kg, i.v."
same,EEG profile,"[1]; rabbit cortex, i.v.",completely different from that produced by stimulant drugs
same,"group percent change in electrical energy from pre-drug control, Δ band",[1]; [3],+15%
same,"mean change ± S.E. in electrical energy from pre-drug control, Δ band",[1]; [3],+30 ± 17 instrument counts
same,"group percent change in electrical energy from pre-drug control, Δ band",[1]; [4],+75%
same,"mean change ± S.E. in electrical energy from pre-drug control, Δ band",[1]; [4],+198 ± 51 instrument counts
same,"group percent change in electrical energy from pre-drug control, α band",[1]; [3],+14%
same,"mean change ± S.E. in electrical energy from pre-drug control, α band",[1]; [3],+21 ± 19 instrument counts
same,"group percent change in electrical energy from pre-drug control, α band",[1]; [4],+42%
same,"mean change ± S.E. in electrical energy from pre-drug control, α band",[1]; [4],+65 ± 18 instrument counts
same,"group percent change in electrical energy from pre-drug control, β band",[1]; [3],+10%
same,"mean change ± S.E. in electrical energy from pre-drug control, β band",[1]; [3],+12 ± 11 instrument counts
same,"group percent change in electrical energy from pre-drug control, β band",[1]; [4],+30%
same,"mean change ± S.E. in electrical energy from pre-drug control, β band",[1]; [4],+42 ± 13 instrument counts
same,"group percent change in electrical energy from pre-drug control, γ band",[1]; [3],-3%
same,"mean change ± S.E. in electrical energy from pre-drug control, γ band",[1]; [3],-3 ± 2 instrument counts
same,"group percent change in electrical energy from pre-drug control, γ band",[1]; [4],+5%
same,"mean change ± S.E. in electrical energy from pre-drug control, γ band",[1]; [4],+4 ± 1 instrument counts
same,"group percent change in electrical energy from pre-drug control, θ band",[1]; [3],+13%
same,"mean change ± S.E. in electrical energy from pre-drug control, θ band",[1]; [3],+20 ± 17 instrument counts
same,"group percent change in electrical energy from pre-drug control, θ band",[1]; [4],+33%
same,"mean change ± S.E. in electrical energy from pre-drug control, θ band",[1]; [4],+65 ± 22 instrument counts
same,minimal effective dose,"[2]; Felis catus, sc, fronto-occipital cat cortex EEG, dose of free base, read-out: the minimum dose required to produce the EEG profile characteristic of that particular drug",1 mg/kg
same,the no-effect dose,"[2]; fronto-occipital cat cortex EEG, dose of free base","0.5† mg/kg, s.c."
same,"group percent change in electrical energy from pre-drug control, Δ band",[2]; 0.5 mg/kg free base s.c.,+6%
same,"mean change ± S.E. in electrical energy from pre-drug control, Δ band",[2]; 0.5 mg/kg free base s.c.,+14 ± 23 instrument counts
same,"group percent change in electrical energy from pre-drug control, Δ band",[2]; 1.0 mg/kg free base s.c.,+25%
same,"mean change ± S.E. in electrical energy from pre-drug control, Δ band",[2]; 1.0 mg/kg free base s.c.,+46 ± 16 instrument counts
same,"group percent change in electrical energy from pre-drug control, Δ band",[2]; 4.0 mg/kg free base s.c.,+56%
same,"mean change ± S.E. in electrical energy from pre-drug control, Δ band",[2]; 4.0 mg/kg free base s.c.,+83 ± 13 instrument counts
same,"group percent change in electrical energy from pre-drug control, α band",[2]; 0.5 mg/kg free base s.c.,+19%
same,"mean change ± S.E. in electrical energy from pre-drug control, α band",[2]; 0.5 mg/kg free base s.c.,+23 ± 14 instrument counts
same,"group percent change in electrical energy from pre-drug control, α band",[2]; 1.0 mg/kg free base s.c.,+25%
same,"mean change ± S.E. in electrical energy from pre-drug control, α band",[2]; 1.0 mg/kg free base s.c.,+33 ± 8 instrument counts
same,"group percent change in electrical energy from pre-drug control, α band",[2]; 4.0 mg/kg free base s.c.,+38%
same,"mean change ± S.E. in electrical energy from pre-drug control, α band",[2]; 4.0 mg/kg free base s.c.,+33 ± 2 instrument counts
same,"group percent change in electrical energy from pre-drug control, β band",[2]; 0.5 mg/kg free base s.c.,+6%
same,"mean change ± S.E. in electrical energy from pre-drug control, β band",[2]; 0.5 mg/kg free base s.c.,+6 ± 5 instrument counts
same,"group percent change in electrical energy from pre-drug control, β band",[2]; 1.0 mg/kg free base s.c.,+9%
same,"mean change ± S.E. in electrical energy from pre-drug control, β band",[2]; 1.0 mg/kg free base s.c.,+13 ± 6 instrument counts
same,"group percent change in electrical energy from pre-drug control, β band",[2]; 4.0 mg/kg free base s.c.,-3%
same,"mean change ± S.E. in electrical energy from pre-drug control, β band",[2]; 4.0 mg/kg free base s.c.,-3 ± 5 instrument counts
same,"group percent change in electrical energy from pre-drug control, γ band",[2]; 0.5 mg/kg free base s.c.,-13%
same,"mean change ± S.E. in electrical energy from pre-drug control, γ band",[2]; 0.5 mg/kg free base s.c.,-10 ± 4 instrument counts
same,"group percent change in electrical energy from pre-drug control, γ band",[2]; 1.0 mg/kg free base s.c.,-10%
same,"mean change ± S.E. in electrical energy from pre-drug control, γ band",[2]; 1.0 mg/kg free base s.c.,-10 ± 5 instrument counts
same,"group percent change in electrical energy from pre-drug control, γ band",[2]; 4.0 mg/kg free base s.c.,-14%
same,"mean change ± S.E. in electrical energy from pre-drug control, γ band",[2]; 4.0 mg/kg free base s.c.,-11 ± 3 instrument counts
same,"group percent change in electrical energy from pre-drug control, θ band",[2]; 0.5 mg/kg free base s.c.,+15%
same,"mean change ± S.E. in electrical energy from pre-drug control, θ band",[2]; 0.5 mg/kg free base s.c.,+22 ± 15 instrument counts
same,"group percent change in electrical energy from pre-drug control, θ band",[2]; 1.0 mg/kg free base s.c.,+20%
same,"mean change ± S.E. in electrical energy from pre-drug control, θ band",[2]; 1.0 mg/kg free base s.c.,+28 ± 10 instrument counts
same,"group percent change in electrical energy from pre-drug control, θ band",[2]; 4.0 mg/kg free base s.c.,+53%
